This note sets out measurements from US12617797B2, “Substituted pyrazolo [1,5-a]pyrimidines having multimodal activity against pain” (ESTEVE PHARMACEUTICALS, S.A., priority 2020, dated 2026).

Some results are limits rather than exact numbers.

Test [1] deals with Human α2δ-1 subunit of Cav2.2 calcium channel (Homo sapiens, UniProt P54289). The experiment in a line: Human α2δ-1 subunit of Cav2.2 calcium channel assay ([3H]-gabapentin binding). Conditions: binding to the α2δ-1 subunit of voltage-gated calcium channels expressed as Ki; + also covers inhibition between 1% and 50%. A digest of the protocol: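 Displacement of 15 nM [3H]-gabapentin from human α2δ-1-enriched membranes (Hepes-KOH 10 mM, pH 7.4; 27 °C, 60 min) read by filter binding and radioactivity counting. Values are single-point % inhibition (1 or 10 μM) or five-point Ki; 10 μM pregabalin sets NSB.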
Chain of Human α2δ-1 subunit of Cav2.2 calcium channel (P54289 25-1103): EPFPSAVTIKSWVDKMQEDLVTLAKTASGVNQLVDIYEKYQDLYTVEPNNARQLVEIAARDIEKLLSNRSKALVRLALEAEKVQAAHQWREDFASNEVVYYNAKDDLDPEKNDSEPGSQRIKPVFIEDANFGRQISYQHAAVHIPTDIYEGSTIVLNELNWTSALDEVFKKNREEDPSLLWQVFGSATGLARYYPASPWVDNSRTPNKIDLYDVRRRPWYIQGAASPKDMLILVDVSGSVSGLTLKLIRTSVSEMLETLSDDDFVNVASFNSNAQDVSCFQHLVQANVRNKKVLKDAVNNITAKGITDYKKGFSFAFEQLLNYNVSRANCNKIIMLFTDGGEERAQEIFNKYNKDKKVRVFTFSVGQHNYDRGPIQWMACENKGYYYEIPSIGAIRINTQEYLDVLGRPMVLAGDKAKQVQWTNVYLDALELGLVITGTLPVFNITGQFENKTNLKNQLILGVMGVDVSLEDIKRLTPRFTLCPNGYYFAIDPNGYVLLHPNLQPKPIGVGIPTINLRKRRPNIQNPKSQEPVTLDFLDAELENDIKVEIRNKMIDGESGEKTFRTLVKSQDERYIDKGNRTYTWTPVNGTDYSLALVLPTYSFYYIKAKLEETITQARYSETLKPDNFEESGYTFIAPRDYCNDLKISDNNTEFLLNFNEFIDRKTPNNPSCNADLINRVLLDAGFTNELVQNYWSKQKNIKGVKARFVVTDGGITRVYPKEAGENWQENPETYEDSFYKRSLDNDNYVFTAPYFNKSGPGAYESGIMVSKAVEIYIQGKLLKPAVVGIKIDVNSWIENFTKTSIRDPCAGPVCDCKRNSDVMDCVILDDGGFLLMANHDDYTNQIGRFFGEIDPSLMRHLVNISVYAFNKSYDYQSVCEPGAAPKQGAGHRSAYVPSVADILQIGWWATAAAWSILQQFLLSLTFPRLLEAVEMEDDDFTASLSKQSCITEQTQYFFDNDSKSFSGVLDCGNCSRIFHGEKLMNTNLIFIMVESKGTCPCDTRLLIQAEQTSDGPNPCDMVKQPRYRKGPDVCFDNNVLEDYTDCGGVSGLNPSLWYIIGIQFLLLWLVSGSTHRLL

In test [2] the target is T1, Human σ1 receptor (Homo sapiens, UniProt Q99720).
T1 construct: expressed in transfected cells; host or cells: HEK-293
T1 sequence (Q99720 whole entry): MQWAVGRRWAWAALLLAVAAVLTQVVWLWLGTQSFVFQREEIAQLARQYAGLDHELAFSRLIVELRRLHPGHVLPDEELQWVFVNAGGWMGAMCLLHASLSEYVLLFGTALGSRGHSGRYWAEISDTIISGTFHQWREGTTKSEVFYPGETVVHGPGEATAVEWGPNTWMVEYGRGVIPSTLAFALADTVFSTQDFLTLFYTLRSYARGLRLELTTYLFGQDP
Put plainly: Human σ1 receptor radioligand assay ([3H](+)-pentazocine binding, transfected HEK-293 membranes). Conditions: binding to σ1 receptor expressed as Ki; + also covers inhibition between 1% and 50%; read-out: σ-1 binding. A digest of the protocol: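 Ki was derived from five test concentrations, or % inhibition was measured at a single 1 or 10 μM dose, against 5 nM [3H](+)-pentazocine. Incubation was 120 min at 37° C in 50 mM Tris-HCl pH 8 with 7 μg HEK-293 membranes, and 10 μM haloperidol set non-specific binding. Bound radioactivity was counted after filtration.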

In the case of `Clc1cccc(CN2CCCC(c3ccnc4cc(Br)nn34)C2)c1` (centres unmarked) [Example 111, 2-Bromo-7-(1-(3-chlorobenzyl)piperidin-3-yl)pyrazolo[1,5-a]pyrimidine], the Ki in test [1] is greater than 5000 nM; in test [2] it was greater than 1000 nM.
For `c1ccc(CN2CCCC(c3ccnc4cc(-c5cnsc5)nn34)C2)cc1` (centres unmarked) [Example 20, 4-(7-(1-Benzylpiperidin-3-yl)pyrazolo[1,5-a]pyrimidin-2-yl)isothiazole], the values for the Ki in test [1] and in test [2] were 500 to 5000 nM and greater than 1000 nM, respectively.
For `Cc1nn2c(C3CCCN(Cc4ccc(Cl)cc4Cl)C3)ccnc2c1CN(C)C` (centres unmarked) [Example 186, 1-(7-(1-(2,4-Dichlorobenzyl)piperidin-3-yl)-2-methylpyrazolo[1,5-a]pyrimidin-3-yl)-N,N-dimethylmethanamine], in that order: greater than 5000 nM and less than 500 nM.
Taken in the same sequence, the figures for `CN[C@@H]1CCN(c2cc3nccc([C@H]4CCCN(Cc5ccccc5)C4)n3n2)C1` [Example 87, (R)-1-(7-((S)-1-Benzylpiperidin-3-yl)pyrazolo[1,5-a]pyrimidin-2-yl)-N-methylpyrrolidin-3-amine] were 500 to 5000 nM and greater than 1000 nM.
Taken in the same sequence, the figures for `CN(C)Cc1cc2nccc(C3CCCN(Cc4ccccc4)C3)n2n1` (centres unmarked) [Example 92, 1-(7-(1-Benzylpiperidin-3-yl)pyrazolo[1,5-a]pyrimidin-2-yl)-N,N-dimethylmethanamine] were 500 to 5000 nM and greater than 1000 nM.
As for `CC(C)CCN1CCCC(c2ccnc3c(CNCC4CCOCC4)c(Cl)nn23)C1` (centres unmarked) [Example 191, 1-(2-Chloro-7-(1-isopentylpiperidin-3-yl)pyrazolo[1,5-a]pyrimidin-3-yl)-N-((tetrahydro-2H-pyran-4-yl)methyl)methanamine], the Ki in test [1] was greater than 5000 nM; in test [2], less than 500 nM.
Taken in the same sequence, the figures for `CCOc1ccc(-c2cc3nccc(C4CCCN(Cc5ccccc5)C4)n3n2)cc1` (centres unmarked) [Example 13, 7-(1-Benzylpiperidin-3-yl)-2-(4-ethoxyphenyl)pyrazolo[1,5-a]pyrimidine] were greater than 5000 nM and greater than 1000 nM.
Taken in the same sequence, the figures for `Cc1nn2c([C@@H]3CCCN(Cc4ccc(Cl)cc4)C3)ccnc2c1CNC[C@H]1CCOC(C)(C)C1` [Example 222] were greater than 5000 nM and less than 500 nM.
As for `Cc1nn2c([C@H]3CCCN(Cc4ccc(Cl)cc4)C3)ccnc2c1CNC[C@@H]1CCOC1` [Example 203, 1-(7-((S)-1-(4-chlorobenzyl)piperidin-3-yl)-2-methylpyrazolo[1,5-a]pyrimidin-3-yl)-N—(((S)-tetrahydrofuran-3-yl)methyl)methanamine], the Ki in test [1] was 500 to 5000 nM; in test [2], less than 500 nM.
In the case of `Cc1nn2c([C@@H]3CCCN(Cc4ccc(Cl)cc4)C3)ccnc2c1CNC[C@@H]1CCOC(C)(C)C1` (racemic) [Example 221, (+/−)-1-(7-((R/S)-1-(4-Chlorobenzyl)piperidin-3-yl)-2-methylpyrazolo[1,5-a]pyrimidin-3-yl)-N—(((R/S)-2,2-dimethyltetrahydro-2H-pyran-4-yl)methyl)methanamine], the Ki in test [1] and in test [2] was less than 500 nM throughout.
As to `Cc1nn2c([C@H]3CCCN(Cc4ccc(Cl)cc4)C3)ccnc2c1CN(C)CC1CC1` [Example 228, (S)-1-(7-(1-(4-chlorobenzyl)piperidin-3-yl)-2-methylpyrazolo[1,5-a]pyrimidin-3-yl)-N-(cyclopropylmethyl)-N-methylmethanamine], the Ki in test [1] and in test [2] was less than 500 nM each time.
In the case of `c1ccc(CN2CCCC(c3ccnc4c(-c5ccccc5)cnn34)C2)cc1` (centres unmarked) [Example 35, 7-(1-Benzylpiperidin-3-yl)-3-phenylpyrazolo[1,5-a]pyrimidine], the Ki in test [1] is greater than 5000 nM; in test [2] it was 500 to 1000 nM.
Taken in the same sequence, the figures for `Cc1nn2c(C3CCCN(Cc4ccc(Cl)cc4)C3)ccnc2c1CNCC(C)C` (centres unmarked) [Example 160, N-((7-(1-(4-Chlorobenzyl)piperidin-3-yl)-2-methylpyrazolo[1,5-a]pyrimidin-3-yl)methyl)-2-methylpropan-1-amine] were 500 to 5000 nM and less than 500 nM.
On to `Cc1nn2c(C3CCCN(Cc4ccc(Cl)cc4)C3)ccnc2c1CNCCOC(C)C` (centres unmarked) [Example 162, N-((7-(1-(4-Chlorobenzyl)piperidin-3-yl)-2-methylpyrazolo[1,5-a]pyrimidin-3-yl)methyl)-2-isopropoxyethan-1-amine], for which the Ki was 500 to 5000 nM in test [1] and less than 500 nM in test [2].
As to `Cc1nn2c(C3CCCN(Cc4ccc(Cl)cc4)C3)ccnc2c1CN` (centres unmarked) [Example 219, (7-(1-(4-Chlorobenzyl)piperidin-3-yl)-2-methylpyrazolo[1,5-a]pyrimidin-3-yl)methanamine], the Ki was in the range of 500 to 5000 nM in test [1] and 500 to 1000 nM in test [2].
Taken in the same sequence, the figures for `Cc1cnc2c(-c3ccncc3)cnn2c1C1CCCN(CCc2ccccc2)C1` (centres unmarked) [Example 73, 6-Methyl-7-(1-phenethylpiperidin-3-yl)-3-(pyridin-4-yl)pyrazolo[1,5-a]pyrimidine] were greater than 5000 nM and less than 500 nM.
For `Brc1cnn2c(C3CCCN(Cc4ccccc4)C3)ccnc12` (centres unmarked) [Example 5, 7-(1-Benzylpiperidin-3-yl)-3-bromopyrazolo[1,5-a]pyrimidine], in that order: 500 to 5000 nM and less than 500 nM.
For the molecule `Cc1nn2c(C3CCCN(CC(C)C)C3)ccnc2c1-c1ccncc1` (centres unmarked) [Example 71, 7-(1-Isobutylpiperidin-3-yl)-2-methyl-3-(pyridin-4-yl)pyrazolo[1,5-a]pyrimidine], the values for the Ki in test [1] and in test [2] were greater than 5000 nM and greater than 1000 nM, respectively.
For `c1ccc(CN2CCCC(c3ccnc4c(-c5ccncc5)cnn34)C2)cc1` (centres unmarked) [Example 36, 7-(1-Benzylpiperidin-3-yl)-3-(pyridin-4-yl)pyrazolo[1,5-a]pyrimidine], in that order: 500 to 5000 nM and 500 to 1000 nM.
As to `CC(=O)N1CCC(CNCc2c(C)nn3c([C@@H]4CCCN(Cc5ccc(Cl)cc5)C4)ccnc23)CC1` [Example 194, (R)-1-(4-((((7-(1-(4-chlorobenzyl)piperidin-3-yl)-2-methylpyrazolo[1,5-a]pyrimidin-3-yl)methyl)amino)methyl)piperidin-1-yl)ethan-1-one], the Ki in test [1] is 500 to 5000 nM; in test [2] it was less than 500 nM.
In the case of `Clc1nn2c([C@@H]3CCCN(Cc4ccccc4)C3)ccnc2c1CNCC1CCOCC1` [Example 215], the Ki was greater than 5000 nM in test [1] and less than 500 nM in test [2].
Take `CNCc1cc2nccc(C3CCCN(Cc4ccccc4)C3)n2n1` (centres unmarked) [Example 93, 1-(7-(1-Benzylpiperidin-3-yl)pyrazolo[1,5-a]pyrimidin-2-yl)-N-methylmethanamine]: the Ki in test [1] was 500 to 5000 nM; in test [2], greater than 1000 nM.
For `Cc1nn2c(C3CCCN(Cc4ccc(Cl)cc4)C3)ccnc2c1CN(C)Cc1ccc(CO)cc1` (centres unmarked) [Example 230, (4-((((7-(1-(4-Chlorobenzyl)piperidin-3-yl)-2-methylpyrazolo[1,5-a]pyrimidin-3-yl)methyl)(methyl)amino)methyl)phenyl)methanol], in that order: 500 to 5000 nM and less than 500 nM.
For `Cc1nn2c(C3CCCN(Cc4ccc(C#N)cc4)C3)ccnc2c1CNCC1CCOCC1` (centres unmarked) [Example 183, 4-((3-(2-Methyl-3-((((tetrahydro-2H-pyran-4-yl)methyl)amino)methyl)pyrazolo[1,5-a]pyrimidin-7-yl)piperidin-1-yl)methyl)benzonitrile], in that order: greater than 5000 nM and less than 500 nM.
For `Cc1nn2c(C3CCCN(Cc4ccc(Cl)cc4)C3)ccnc2c1CN1CCSCC1` (centres unmarked) [Example 167, 4-((7-(1-(4-Chlorobenzyl)piperidin-3-yl)-2-methylpyrazolo[1,5-a]pyrimidin-3-yl)methyl)thiomorpholine], in that order: 500 to 5000 nM and less than 500 nM.
In the case of `Cc1ccccc1CN1CCCC(c2ccnc3c(-c4ccncc4)c(C)nn23)C1` (centres unmarked) [Example 75, 2-Methyl-7-(1-(2-methylbenzyl)piperidin-3-yl)-3-(pyridin-4-yl)pyrazolo[1,5-a]pyrimidine], the Ki in test [1] was 500 to 5000 nM; in test [2], greater than 1000 nM.
As for `Cc1nn2c([C@H]3CCCN(Cc4cccc(C#N)c4)C3)ccnc2c1CNCC1CCOCC1` [Example 208, (S)-3-((3-(2-Methyl-3-((((tetrahydro-2H-pyran-4-yl)methyl)amino)methyl)pyrazolo[1,5-a]pyrimidin-7-yl)piperidin-1-yl)methyl)benzonitrile], the Ki is greater than 5000 nM in test [1] and less than 500 nM in test [2].
For `Cc1nn2c(C3CCCN(Cc4ccc(Cl)cc4)C3)ccnc2c1CNCc1ccc(CO)cc1` (centres unmarked) [Example 147, (4-((((7-(1-(4-Chlorobenzyl)piperidin-3-yl)-2-methylpyrazolo[1,5-a]pyrimidin-3-yl)methyl)amino)methyl)phenyl)methanol], in that order: greater than 5000 nM and less than 500 nM.
On to `Cc1nn2c(C3CCCN(Cc4ccc(F)c(F)c4)C3)ccnc2c1-c1ccncc1` (centres unmarked) [Example 125, 7-(1-(3,4-Difluorobenzyl)piperidin-3-yl)-2-methyl-3-(pyridin-4-yl)pyrazolo[1,5-a]pyrimidine], for which the values for the Ki in test [1] and in test [2] were 500 to 5000 nM and greater than 1000 nM, respectively.
For `CNCc1c(C)nn2c(C3CCCN(Cc4ccccc4)C3)ccnc12` (centres unmarked) [Example 96, 1-(7-(1-Benzylpiperidin-3-yl)-2-methylpyrazolo[1,5-a]pyrimidin-3-yl)-N-methylmethanamine], in that order: 500 to 5000 nM and greater than 1000 nM.
Turning to `c1ccc(CN2CCCC(c3ccnc4cc(-c5ccccn5)nn34)C2)cc1` (centres unmarked) [Example 26, 7-(1-Benzylpiperidin-3-yl)-2-(pyridin-2-yl)pyrazolo[1,5-a]pyrimidine], the Ki was less than 500 nM in test [1] and greater than 1000 nM in test [2].
